Source: US20210046114A1, “HPV IMMUNOTHERAPY” (The Council of the Queensland Institute of Medical Research, priority 2018, published 2021)

How the values were obtained:
[1] = system: HPV-specific T cells / HLA-matched and mismatched PHA blasts; assay: HLA restriction mapping with peptide loaded HLA-matched and mismatched PHA blasts; format: cell-based, human; conditions: epitopes mapped in HNC patient T cells, Table 1
Method: (§1) Peripheral blood mononuclear cells (PBMCs) from HNC patients were isolated and stimulated with HPV antigen pepmix peptide pools for either HPV16 or HPV18 in separate cultures and prepared for the intracellular cytokine staining (ICS) assay, as described above (non-stimulated controls were run in parallel). T cell response to the pepmix peptide pools was analyzed to identify individual peptides. These individual peptides were further assessed for T cell expansion and ICS analysis to identify potential epitopes. Once the 15mer peptide was identified, further mimimalization of the epitope sequence was carried out to identify the optimal T cell epitope sequence. The 15mer peptide sequences were trimmed from both N- and C-terminus to a minimal of 9-14 amino acid long peptides. Once the minimal peptide sequence was identified, further confirmation was carried out using limiting dose titration ICS assay. After mapping minimal epitope sequence, the HLA restriction of the epitope was identified by stimulating T cells using peptide loaded HLA-matched and mismatched PHA blasts (PHA).

[2] = system: HPV-specific T cells from HNC patients; assay: HPV T-cell epitope mapping by intracellular cytokine staining (ICS); format: cell-based, human; conditions: for T cell specificity: epitopes mapped in HNC patient T cells, Table 1; for epitope identified by fine-mapping: FIG. 5 and FIG. 6
Method: as §1
Representative data showing that HPV-specific T cells from HNC patients recognized HPV16-E6, HPV18-E6 antigens can be found in FIGS. 1 and 2, respectively. In order to map the T cell epitope, further analysis was carried out using sub pools of E6 peptides. […] When analyzed on an HPV peptide matrix layout, the common peptide sequence among the responding pools was identified.

Sequence	HLA restriction [1]	T cell specificity [2]	epitope identified by fine-mapping [2]
TPTLHEYMLDLQPETTDLY (listed as Human papillomavirus)	DQB1*03:01	CD4^+	
TIHDIILECV (listed as Human papillomavirus)		CD8^+	
NLDTASTTL (listed as Human papillomavirus)		CD8^+	
TLQDVSLEVYL (listed as Human papillomavirus)		CD8^+	
HIDYWKHMRLECALY (listed as Human papillomavirus)	DQB1*03:01	CD4^+	
RPFKSNKST (listed as Human papillomavirus)		CD8^+	
TLLQQYCLYL		CD8^+	
FRDLCIVYR (listed as Human papillomavirus)		CD8^+	
VQSTHVDIRTLEDLLMGTL (listed as Human papillomavirus)	DQB1*03:01	CD4^+	
SEIAYKYAQ (listed as Human papillomavirus)		CD8^+	
WPTTPPRPI (listed as Human papillomavirus)		CD8^+	
TVLELTEVFEF (listed as Human papillomavirus)		CD8^+	
KLPQLCTEL (listed as Human papillomavirus)		CD8^+	
HDIILECVY (listed as Human papillomavirus)		CD8^+	
KQRFHNIRGRWTGRC			fine CD4 epitope-mapping of HPV16-E6 pools identified
RCINCQKPLCPEEKQRHLD (listed as Human papillomavirus)	DRB115:01	CD4^+	
TVLELTEVFEFA (listed as Human papillomavirus)		CD8^+	HPV18-E6 CD^+ T cell epitope

Sequence	HLA restriction [1]	T cell specificity [2]	epitope identified by fine-mapping [2]
LQDVSLEVYL (listed as Human papillomavirus)		CD8^+	
GRWTGRCMSC (listed as Human papillomavirus)		CD8^+	
VYDYAFRDLCIVYRDGNPYAVCD (listed as Human papillomavirus)	DRB115:01	CD4^+	
SAFRCFIVY (listed as Human papillomavirus)		CD8^+	
AFRDLCIVY (listed as Human papillomavirus)		CD8^+	
FELSQMVQW (listed as Human papillomavirus)		CD8^+	
VWEVHAGGQVI (listed as Human papillomavirus)		CD8^+	
IRCINCQKPL (listed as Human papillomavirus)		CD8^+	
LEDLLMGTLGI (listed as Human papillomavirus)		CD8^+	
WKSFFSRTWSRLSLH (listed as Human papillomavirus)	DRB1*04:01	CD4^+	
EKQRHLDKKQRFHNIRGRWTGRCMSCC (listed as Human papillomavirus)	DRB115:01	CD4^+	
YEQLNDSSEEEDEID (listed as Human papillomavirus)	DQB1*03:01	CD4^+	
LLMGTLGIV		CD8^+	
SPATAFTVY (listed as Human papillomavirus)		CD8^+	
SVDSAPILTAFNSSH (listed as Human papillomavirus)	DQB1*03:01	CD4^+	
DRAHYNIVTF (listed as Human papillomavirus)		CD8^+	
